# Patent US3983239A, “Hexahydro-γ-carboline derivatives and their salts” (priority 1974, dated 1976)
# Entries after “also recorded” stand apart in the source; their conditions may differ. Like-named read-outs stand apart in the source and are kept apart here.
# How the values were obtained:
# [1] = test system: apomorphine-induced gnawing; experiment: Enhancement of apomorphine-induced gnawing; format: in vivo; settings: 0.03-0.7 mg/kg s.c., rats
# self-stimulation = experiment: Inhibiting activity of self-stimulation, rats; format: in vivo; settings: Rattus norvegicus, po, read-out: ED50 value, inhibiting activity of self-stimulation
# Excerpt: 8) J. Olds et al; J. Comp. Physiol. Psychol., Vol. 47, page
# catalepsy = experiment: Cataleptogenic activity, rats; format: in vivo; settings: Rattus norvegicus, po, read-out: ED50 value, cataleptogenic activity
# [2] = test system: homovanillic acid (HVA) in brain; experiment: Effect on homovanillic acid (HVA) in brain; format: in vivo, male Wistar rats; settings: Rattus norvegicus, read-out: dose that remarkably increased the HVA in the brain
# Description: 3. Effect on homovanillic acid (HVA for short) in brain
# This test was carried out by a modified method of T. Karasawa et al. [Life Sci., Vol. 15, page 1465 (1974)].
# To male Wistar rats, weighing 160 to 200 g (each group: 5 rats), was administered 8-methyl-2-[γ-(p-fluorobenzoyl)propyl]-2,3,4,4a,5,9b-hexahydro-1H-pyrido[4,3-b]indole dihydrochloride (Compound A) intraperitoneally or orally. After 90 minutes in case of the intraperitoneal administration, or after 6 hours in case of the oral administration, the test animals were decapitated, and then the HVA in the brain was measured by a fluorometric method.
# [3] = test system: electroencephalogram (EEG); experiment: Activation of the electroencephalogram (EEG); format: in vivo; settings: 5 mg/kg i.v., gallamine immobilized cats
# locomotion [4] = experiment: Inhibiting activity of locomotion, rats (Open-field method); format: in vivo; settings: Rattus norvegicus, read-out: ED50 value, inhibiting activity of locomotion
# Excerpt: 3) Open-field method [C.S. Hall; J. Comp. Physiol. Psychol.
# Acute toxicity, mice = settings: mouse, in vivo; for LD50 at 168 h: observed 7 days; for LD50 at 96 h: observed 4 days
# Excerpt: (§1) Male and female STD-dd Y mice, weighing 20 to 22 g (each group: 10 mice) and male Wistar HLA rats, weighing 250 to 300 g (each group: 10 to 20 rats) were used.
# locomotion [5] = experiment: Inhibiting activity of locomotion, mice (Animex method); format: in vivo; settings: Mus musculus, po, read-out: ED50 value, inhibiting activity of locomotion
# [6] = test system: conditioned avoidance response; experiment: Inhibiting activity of conditioned avoidance response, mice; format: in vivo; settings: Mus musculus, po, read-out: ED50 value, inhibiting activity of conditioned avoidance response
# [7] = test system: conditioned avoidance response; experiment: Inhibiting activity of conditioned avoidance response, rats (Shuttle box method); format: in vivo; settings: Rattus norvegicus, po, read-out: ED50 value, inhibiting activity of conditioned avoidance response
# [8] = test system: methamphetamine-induced stereotypy; experiment: Potentiation of methamphetamine-induced stereotypy; format: in vivo, male Wistar HLA rats; parameters: key: ---: Marked antagonism; --: Moderate antagonism; -: Slight antagonism; 0: No interaction; +: Slight potentiation; ++: Moderate potentiation; +++: Marked potentiation; settings: methamphetamine 2 mg/kg i.p.
# Description: 1. Potentiation of methamphetamine-induced stereotypy
# This test was carried out by a modified method of R. T. Naylor (Life Sci., Vol. 10, page 909, 1971).
# To male Wistar HLA rats, weighing 200 to 250 g (each group: 6 rats), were intraperitoneally administered the compounds to be tested. After 20 minutes, methamphetamine (2 mg/kg) was intraperitoneally administered to the test animals, and then the appeared stereotypy was observed. The effects of the test compounds were evaluated by the intensity of the stereotypy and the termination thereof.
# muscle relaxant activity = experiment: Muscle relaxant activity, rats; format: in vivo; settings: Rattus norvegicus, read-out: ED50 value, muscle relaxant activity
# Acute toxicity, rats = settings: rat, in vivo, male; for LD50 at 168 h: observed 7 days; for LD50 at 96 h: observed 4 days
# Excerpt: as §1
# central nervous system = experiment: Depression of the central nervous system (overall); settings: in vivo
# Excerpt: 2. Depression of the central nervous system The compounds of the present invention show the same central nervous system depressing pattern as the existing neuroleptics, such as an inhibiting activity of locomotion, an inhibiting activity of conditioned avoidance response, a cataleptogenic activity, a muscle relaxant activity, an inhibiting activity of self-stimulation, and an anti-methamphetamine activity in terms of locomotor activity.
# [9] = cited from earlier work
# amphetamine = settings: in vivo; cited from earlier work
SMILES,"ED50 (self-stimulation; rats, p.o.) [mg/kg]","ED50 (catalepsy; rats, p.o.) [mg/kg]","ED50 (locomotion [4]; ip, rats, i.p.) [mg/kg]","ED50 (locomotion [4]; po, rats, p.o.) [mg/kg]","LD50 at 168 h (Acute toxicity, mice; ip, male) [mg/kg]","LD50 at 168 h (Acute toxicity, mice; iv, male) [mg/kg]","LD50 at 168 h (Acute toxicity, mice; po, male) [mg/kg]","LD50 at 168 h (Acute toxicity, mice; sc, male) [mg/kg]","ED50 (locomotion [5]; mice, p.o.) [mg/kg]","ED50 ([6]; mice, p.o.) [mg/kg]","ED50 ([7]; rats, p.o.) [mg/kg]",Stereotypy Intensity ([8]; 1.0 mg/kg i.p.),Stereotypy Intensity ([8]; 2.0 mg/kg i.p.),Stereotypy Termination ([8]; 2.0 mg/kg i.p.),Stereotypy Intensity ([8]; 5.0 mg/kg i.p.),Stereotypy Termination ([8]; 5.0 mg/kg i.p.),Stereotypy Intensity ([8]; 10.0 mg/kg i.p.),Stereotypy Termination ([8]; 10.0 mg/kg i.p.),"ED50 (muscle relaxant activity; ip, rats, i.p.) [mg/kg]","ED50 (muscle relaxant activity; po, rats, p.o.) [mg/kg]",other results
"Cc1ccc2c(c1)C1CN(CCCC(=O)c3ccc(F)cc3)CCC1N2.Cl.Cl (centres unmarked) [Compound A, 8-Methyl-2-[γ-(p-fluorobenzoyl)propyl]-2,3,4,4a,5,9b-hexahydro-1H-pyrido[4,3-b]indole dihydrochloride]",61.8,34,2.8,33.2,134,59,589,373,9.3,10,23.8,0,++,++,+++,+++,+++,+++,3.16,11.2,"incidence of gnawing after apomorphine [1]: increased the incidence of gnawing; minimal effective dose ([2]; ip, 1.5 h, i.p., 90 minutes after administration): ≥ 5 mg/kg; minimal effective dose ([2]; po, 6 hours after administration): ≥ 13 mg/kg; spontaneous EEG, arousal time in the hippocampus [3]: prolongation of arousal time in the hippocampus; spontaneous EEG, cortex [3]: low-voltage high frequency in the cortex; LD50 at 168 h (Acute toxicity, mice; ip, female): 95 mg/kg; LD50 at 168 h (Acute toxicity, mice; po, female): 339 mg/kg; Stereotypy Termination ([8]; 1.0 mg/kg i.p.): 0; LD50 at 168 h (Acute toxicity, rats; ip): 146 mg/kg; LD50 at 168 h (Acute toxicity, rats; iv): 51 mg/kg; LD50 at 168 h (Acute toxicity, rats; po): 812 mg/kg; LD50 at 168 h (Acute toxicity, rats; sc): 592 mg/kg; central nervous system depressing activities (in words) (central nervous system; dihydrochloride): somewhat inferior to those of chlorpromazine; also recorded: almost comparable to those of clozapine; also recorded: far superior to those of dicarbine"
"Cc1ccc2c(c1)C1CN(C)CCC1N2 (centres unmarked) [Dicarbine, 2,8-dimethyl-2,3,4,4a,5,9b-hexahydro-1H-pyrido[4,3-b]indole]",> 100,> 100,28.7,> 200,153,79,357,237,150,119,> 100,0,+,++,++,+++,+++,+++,60.3,> 100,activity in clinical trials [9]: antipsychotic activity and a thymoleptic activity; activity against amphetamine (amphetamine): antagonism against amphetamine and also an activity of potentiating the amphetamine-induced stereotypy; Stereotypy Termination ([8]; 1.0 mg/kg i.p.): 0; central nervous system depressing activities (in words) (central nervous system): far weak in comparison with those of the present compounds
CN(C)CCCN1c2ccccc2Sc2ccc(Cl)cc21 [Chlorpromazine],,,,,,,476,,,,,,0,0,--,+,---,---,,,ED50 (self-stimulation): 7.04 mg/kg; ED50 (catalepsy): 16.1 mg/kg; ED50 (locomotion [4]; ip): 2.41 mg/kg; ED50 (locomotion [4]; po): 9.88 mg/kg; ED50 (locomotion [5]): 6.34 mg/kg; ED50 [6]: 5.65 mg/kg; ED50 [7]: 7.04 mg/kg; ED50 (muscle relaxant activity; ip): 2.07 mg/kg; ED50 (muscle relaxant activity; po): 4.38 mg/kg
"CN1CCN(C2=Nc3cc(Cl)ccc3Nc3ccccc32)CC1 [Clozapine, 8-chloro-11-(4-methyl-1-piperazinyl)-5H-dibenzo[b,e][1,4]-diazepine]",61.8,> 100,5.54,27.4,,,,,7.5,9.75,34.7,,,,,,,,5.41,28.1,"LD50 at 96 h (Acute toxicity, mice; iv, male): 37 mg/kg; LD50 at 96 h (Acute toxicity, mice; po, female): 212 mg/kg; LD50 at 96 h (Acute toxicity, mice; po, male): 202 mg/kg; LD50 at 96 h (Acute toxicity, mice; sc, male): 194 mg/kg; LD50 at 96 h (Acute toxicity, rats; iv): 42 mg/kg; LD50 at 96 h (Acute toxicity, rats; po): 251 mg/kg; LD50 at 96 h (Acute toxicity, rats; sc): 272 mg/kg"
